Test results from ChEMBL document CHEMBL1201862, “PubChem BioAssay data set” (2004).
“And” between values parts separate entries of the source, which are not always exact repeats. Equal values may be shown once.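 Where inhibition never reached the appropriate level, the endpoint shown equals the highest concentration tested. Otherwise, values were interpolated linearly from a five-concentration, 48-hour dose response in 96-well plates. The concentration for 50% growth inhibition is given as GI50.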 The source made the active and inactive calls. Rule as the data show it: active = GI50 up to about 1.1 µM and inactive = higher.

How the values were obtained:
Experiment in all cases: NCI tumour cell line growth inhibition, 48 h
A498 = test system: A498
SK-OV-3 = test system: SK-OV-3
NCI-H460 = test system: NCI-H460
M14 = test system: M14
OVCAR-5 = test system: OVCAR-5
SF-295 = test system: SF-295
HOP-62 = test system: HOP-62
TK-10 = test system: TK-10
OVCAR-3 = test system: OVCAR-3
SF-268 = test system: SF-268
OVCAR-8 = test system: OVCAR-8
UACC-257 = test system: UACC-257
RPMI-8226 = test system: RPMI-8226
786-0 = test system: 786-0
LXFL 529 = test system: LXFL 529
UO-31 = test system: UO-31
KM12 = test system: KM12
IGROV-1 = test system: IGROV-1
LOX IMVI = test system: LOX IMVI
Malme-3M = test system: Malme-3M
KM-20L2 = test system: KM-20L2
SNB-19 = test system: SNB-19
EKVX = test system: EKVX
CAKI-1 = test system: CAKI-1
SW-620 = test system: SW-620
NCI-H522 = test system: NCI-H522
MOLT-4 = test system: MOLT-4
SR = test system: SR
DMS-114 = test system: DMS-114
HCT-15 = test system: HCT-15
COLO 205 = test system: COLO 205
A549 = test system: A549
ACHN = test system: ACHN
RXF 393 = test system: RXF 393
NCI-H226 = test system: NCI-H226
NCI-H23 = test system: NCI-H23
U-251 = test system: U-251
RXF 631 = test system: RXF 631
SK-MEL-5 = test system: SK-MEL-5
DMS-273 = test system: DMS-273
HCT-116 = test system: HCT-116
SF-539 = test system: SF-539
CCRF-CEM = test system: CCRF-CEM
M19-MEL = test system: M19-MEL
SNB-78 = test system: SNB-78
SN12C = test system: SN12C
DLD-1 = test system: DLD-1
UACC-62 = test system: UACC-62
K562 = test system: K562
HOP-18 = test system: HOP-18
SK-MEL-28 = test system: SK-MEL-28
SK-MEL-2 = test system: SK-MEL-2
HT-29 = test system: HT-29
SNB-75 = test system: SNB-75
HCC 2998 = test system: HCC 2998
OVCAR-4 = test system: OVCAR-4
HOP-92 = test system: HOP-92
HL-60 = test system: HL-60
NCI/ADR-RES = test system: NCI/ADR-RES

CN1C(=O)N(C)C2(O)c3ccccc3C(=O)C12O (stereo not drawn)
GI50 (A498): > 100 µM (inactive) | GI50 (SK-OV-3): > 100 µM (inactive) | GI50 (NCI-H460): > 100 µM (inactive) | GI50 (M14): > 100 µM (inactive) | GI50 (OVCAR-5): > 100 µM (inactive) | GI50 (SF-295): > 100 µM (inactive) | GI50 (HOP-62): > 100 µM (inactive) | GI50 (TK-10): > 100 µM (inactive) | GI50 (OVCAR-3): > 100 µM (inactive) | GI50 (SF-268): > 100 µM (inactive) | GI50 (OVCAR-8): > 100 µM (inactive) | GI50 (UACC-257): > 100 µM (inactive) | GI50 (RPMI-8226): > 100 µM (inactive) | GI50 (786-0): > 100 µM (inactive) | GI50 (LXFL 529): > 100 µM (inactive) | GI50 (UO-31): > 100 µM (inactive) | GI50 (KM12): > 100 µM (inactive) | GI50 (IGROV-1): > 100 µM (inactive) | GI50 (LOX IMVI): > 100 µM (inactive) | GI50 (Malme-3M): > 100 µM (inactive) | GI50 (KM-20L2): > 100 µM (inactive) | GI50 (SNB-19): > 100 µM (inactive) | GI50 (EKVX): > 100 µM (inactive) | GI50 (CAKI-1): > 100 µM (inactive) | GI50 (SW-620): > 100 µM (inactive) | GI50 (NCI-H522): > 100 µM (inactive) | GI50 (MOLT-4): > 100 µM (inactive) | GI50 (SR): > 100 µM (inactive) | GI50 (DMS-114): > 100 µM (inactive) | GI50 (HCT-15): > 100 µM | GI50 (COLO 205): > 100 µM (inactive) | GI50 (A549): > 100 µM (inactive) | GI50 (ACHN): > 100 µM (inactive) | GI50 (RXF 393): > 100 µM (inactive) | GI50 (NCI-H226): > 100 µM (inactive) | GI50 (NCI-H23): > 100 µM (inactive) | GI50 (U-251): > 100 µM (inactive) | GI50 (RXF 631): > 100 µM (inactive) | GI50 (SK-MEL-5): > 100 µM (inactive) | GI50 (DMS-273): > 100 µM (inactive) | GI50 (HCT-116): > 100 µM (inactive) | GI50 (SF-539): > 100 µM (inactive) | GI50 (CCRF-CEM): > 100 µM (inactive) | GI50 (M19-MEL): > 100 µM (inactive) | GI50 (SNB-78): > 100 µM (inactive) | GI50 (SN12C): > 100 µM (inactive) | GI50 (DLD-1): > 100 µM (inactive) | GI50 (UACC-62): > 100 µM (inactive) | GI50 (K562): > 100 µM (inactive) | GI50 (HOP-18): > 100 µM (inactive) | GI50 (SK-MEL-28): > 100 µM (inactive) | GI50 (SK-MEL-2): > 100 µM (inactive) | GI50 (HT-29): > 100 µM (inactive) | GI50 (SNB-75): > 100 µM (inactive) | GI50 (HCC 2998): > 100 µM (inactive) | GI50 (OVCAR-4): > 100 µM (inactive)

COC1=C(C)C(=O)C2=C(C1=O)C(CO)N1C(C#N)C3CC4C(C1C2N1CCOC41)N3C (stereo not drawn)
GI50 (A498): 0.146 µM (active) | GI50 (SK-OV-3): 164 nM (active) and 261 nM (active) | GI50 (NCI-H460): 90.8 nM (active) and 150 nM (active) | GI50 (OVCAR-5): 262 nM (active) and 241 nM (active) | GI50 (SF-295): 292 nM (active) and 179 nM (active) | GI50 (HOP-62): 270 nM (active) and 166 nM (active) | GI50 (SF-268): 78.5 nM (active) and 85.9 nM (active) | GI50 (OVCAR-8): 30.3 nM (active) and 19.3 nM (active) | GI50 (UACC-257): 26.2 nM (active) and 27.7 nM (active) | GI50 (HOP-92): 24.1 nM (active) and < 16.9 nM (active) | GI50 (786-0): 20 nM (active) and 26.8 nM (active) | GI50 (KM12): 58.8 nM (active) and 80.7 nM (active) | GI50 (IGROV-1): 45.1 nM (active) and 32.4 nM (active) | GI50 (LOX IMVI): 11.6 nM (active) and < 14.1 nM (active) | GI50 (KM-20L2): 0.0617 µM (active) | GI50 (EKVX): 314 nM (active) and 305 nM (active) | GI50 (SW-620): < 14.6 nM (active) and 16.4 nM (active) | GI50 (MOLT-4): 0.0128 µM (active) | GI50 (HCT-15): < 0.01 µM and 0.0144 µM | GI50 (A549): 354 nM (active) and 321 nM (active) | GI50 (ACHN): 64.1 nM (active) and 38.8 nM (active) | GI50 (RXF 393): 20.9 nM (active) and 20.6 nM (active) | GI50 (NCI-H226): 99.3 nM (active) and 57.9 nM (active) | GI50 (NCI-H23): 35.2 nM (active) and 39.1 nM (active) | GI50 (RXF 631): 0.167 µM (active) | GI50 (SK-MEL-5): 50.7 nM (active) and 29.9 nM (active) | GI50 (DMS-273): 0.02 µM (active) | GI50 (M19-MEL): 0.0492 µM (active) | GI50 (DLD-1): 0.00706 µM (active) | GI50 (HL-60): 0.0133 µM (active) | GI50 (HOP-18): 0.132 µM (active) | GI50 (SK-MEL-28): 51.8 nM (active) and 52 nM (active) | GI50 (NCI/ADR-RES): 22.6 nM (active) and 31.5 nM (active) | GI50 (SK-MEL-2): 15.8 nM (active) and 19.4 nM (active) | GI50 (SNB-75): 20.6 nM (active) and 39.5 nM (active) | GI50 (HCC 2998): 72.4 nM (active) and 60.3 nM (active)

O=S(=O)(SCCCCSS(=O)(=O)c1ccc(Cl)cc1)c1ccc(Cl)cc1
GI50 (A498): 16.6 µM (inactive) | GI50 (SK-OV-3): 15.3 µM (inactive) | GI50 (NCI-H460): 14.4 µM (inactive) | GI50 (M14): 14.6 µM (inactive) | GI50 (OVCAR-5): 16.7 µM (inactive) | GI50 (SF-295): 3.92 µM (inactive) | GI50 (HOP-62): 20.1 µM (inactive) | GI50 (TK-10): 21.3 µM (inactive) | GI50 (OVCAR-3): 14.7 µM (inactive) | GI50 (SF-268): 10.5 µM (inactive) | GI50 (OVCAR-8): 12.2 µM (inactive) | GI50 (UACC-257): 16.6 µM (inactive) | GI50 (RPMI-8226): 4.39 µM (inactive) | GI50 (HOP-92): 8.51 µM (inactive) | GI50 (786-0): 9.68 µM (inactive) | GI50 (LXFL 529): 12.2 µM (inactive) | GI50 (UO-31): 9.04 µM (inactive) | GI50 (KM12): 9.68 µM (inactive) | GI50 (IGROV-1): 5.2 µM (inactive) | GI50 (LOX IMVI): 3.39 µM (inactive) | GI50 (Malme-3M): 15.4 µM (inactive) | GI50 (KM-20L2): 18 µM (inactive) | GI50 (SNB-19): 10.2 µM (inactive) | GI50 (EKVX): 4.67 µM (inactive) | GI50 (CAKI-1): 12.7 µM (inactive) | GI50 (SW-620): 9.46 µM (inactive) | GI50 (NCI-H522): 5.06 µM (inactive) | GI50 (MOLT-4): 2.73 µM (inactive) | GI50 (DMS-114): 6.67 µM (inactive) | GI50 (HCT-15): 13.4 µM | GI50 (COLO 205): 14.9 µM (inactive) | GI50 (A549): 13.5 µM (inactive) | GI50 (ACHN): 16.3 µM (inactive) | GI50 (RXF 393): 16.7 µM (inactive) | GI50 (NCI-H23): 10.3 µM (inactive) | GI50 (U-251): 8.36 µM (inactive) | GI50 (RXF 631): 8.2 µM (inactive) | GI50 (SK-MEL-5): 16.7 µM (inactive) | GI50 (DMS-273): 10.3 µM (inactive) | GI50 (HCT-116): 11 µM (inactive) | GI50 (SF-539): 12.4 µM (inactive) | GI50 (CCRF-CEM): 1.85 µM (inactive) | GI50 (M19-MEL): 14.8 µM (inactive) | GI50 (SNB-78): 18.6 µM (inactive) | GI50 (SN12C): 9.23 µM (inactive) | GI50 (DLD-1): 13.8 µM (inactive) | GI50 (HL-60): 3.24 µM (inactive) | GI50 (UACC-62): 12.2 µM (inactive) | GI50 (K562): 20 µM (inactive) | GI50 (HOP-18): 13.6 µM (inactive) | GI50 (SK-MEL-28): 17.8 µM (inactive) | GI50 (SK-MEL-2): 14.9 µM (inactive) | GI50 (HT-29): 17.3 µM (inactive) | GI50 (SNB-75): 11.4 µM (inactive) | GI50 (HCC 2998): 18.7 µM (inactive) | GI50 (OVCAR-4): 15.1 µM (inactive)

Clc1ccc2c(c1)[nH]c1c2nc2ccccn21
GI50 (A498): 24.2 µM (inactive) | GI50 (SK-OV-3): 27.3 µM (inactive) | GI50 (M14): 20.2 µM (inactive) | GI50 (TK-10): 16.8 µM (inactive) | GI50 (SF-268): 19 µM (inactive) | GI50 (UACC-257): 16.7 µM (inactive) | GI50 (RPMI-8226): 14.7 µM (inactive) | GI50 (786-0): 18.9 µM (inactive) | GI50 (UO-31): 18.4 µM (inactive) | GI50 (KM12): 16.9 µM (inactive) | GI50 (IGROV-1): 40.8 µM (inactive) | GI50 (KM-20L2): 14.7 µM (inactive) | GI50 (SNB-19): 19.4 µM (inactive) | GI50 (SW-620): 24.8 µM (inactive) | GI50 (NCI-H522): 19.8 µM (inactive) | GI50 (SR): 17.1 µM (inactive) | GI50 (A549): 25.1 µM (inactive) | GI50 (NCI-H226): 25.4 µM (inactive) | GI50 (NCI-H23): 21.6 µM (inactive) | GI50 (RXF 631): 22.5 µM (inactive) | GI50 (HCT-116): 19.3 µM (inactive) | GI50 (SF-539): 15.9 µM (inactive) | GI50 (SNB-78): 23.6 µM (inactive) | GI50 (SK-MEL-28): 17.4 µM (inactive) | GI50 (HT-29): 15.2 µM (inactive)
